In patent US4563471A, “4-Oxothiazolidin-2-ylidene-acetamide derivatives as CNS agents” (Warner-Lambert Company, priority 1983, dated 1986):
Like-named read-outs stand apart in the source and are kept apart here.

Experiments:
DBA/2j mice = test: Audiogenic cramps; assay type: in vivo, mouse; settings: po, 1 min, read-out: ED50 audiogenic cramp
Experimental: (§1) In the case of all substances, there was used in the cramp test as vehicle 0.8% Methocel mucilage. The premedication time amounted to 30 minutes, insofar as nothing else is stated, and the administration took place i.g. in 20 ml/kg body weight.
(§2) In the case of the audiogenic cramps, DBA/2j mice of male sex were used in a weight of 5-10 g which, on the day before the experiment, were removed and not fasted.
(§3) Per dosage, in each case ten animals were subjected to the test.
9. […] The observation time amount to one minute.

male mice (NMRI) [1] = test: Electroshock; assay type: in vivo, mouse
Experimental: as §1
(§4) Experimental animals were male mice (NMRI) with a body weight of 18 to 24 g., which were kept under controlled conditions. Twenty-four hours (if not stated otherwise) before commencement of the experiment, the feed was withdrawn but, up to the commencement of the experiment, the drinking water was left.
as §3
3. […] For the transmission of the current impact, electrodes in the form of ear clips were fixed to the ears of the mouse. The period of the shock amounted to 0.3 s., the current strength to 35 mA (voltage self-regulating).

in vivo = settings: mouse, po
Experimental: The determination of the acute toxicity was carried out on male mice (NMRI) with a body weight of 18-23 g. All experimental animals were fasted for 20 hours before commencement of the experiment. Water was available ad libitum. To each dosage group there belonged four animals. The dosage sequence was logarithmic. The test substances were administered intragastrally as suspension in 0.88% Methocel. The volume of administration amounted to 20 ml/kg.

male mice (NMRI) [2] = test: Isoniazide cramp; assay type: in vivo, mouse; settings: po, 1.5 h, read-out: ED50 isoniazide cramp
Experimental: as §1, §4, §3

male mice (NMRI) [3] = test: Picrotoxin cramp; assay type: in vivo, mouse; settings: for ED50: Mus musculus, po, 20 min, read-out: ED50 picrotoxin cramp; for ED50 picrotoxin cramp: i.g., male mouse, picrotoxin 15 mg/kg s.c., observation 20 min
Experimental: as §1, §4, §3

male mice (NMRI) [4] = test: Semicarbazide cramp; assay type: in vivo, mouse; settings: po, 1.5 h; for ED50: read-out: ED50 semicarbazide cramp
Experimental: as §1, §4, §3
7. Semicarbazide cramp--Semicarbazide hydrochloride was used as cramp agent in a dosage of 1000 mg/kg s.c. The observation time amounted in each case to 90 minutes p.a.

male mice (NMRI) [5] = test: Strychnine cramp; assay type: in vivo, mouse; settings: for ED50: Mus musculus, po, 20 min, read-out: ED50 strychnine cramp; for ED50 strychnine cramp: i.g., male mouse, strychnine 1.1 mg/kg s.c., observation 20 min
Experimental: as §1, §4, §3
2. Strychnine cramp--As convulsive, there was used strychnine nitric cryst in a dosage of 1.1 mg/kg s.c., whereby the observation time amount to 20 minutes p.a.

male mice (NMRI) [6] = test: 3-Mercaptopropionic acid cramp (3-MPA); assay type: in vivo, mouse; settings: po, 0.5 h, read-out: ED50 3-MPA cramp
Experimental: as §1, §4, §3
8. 3-Mercaptopropionic acid--3-Mercaptopropionic acid was diluted with physiological NaCl solution, adjusted with 6 mol/l NaOH to PH 7 and brought with NaCl solution to the end volume (10 ml/kg). The observation time amounted to 30 minutes.

male mice (NMRI) [7] = test: Pentetrazole cramp; assay type: in vivo, mouse; settings: po, 20 min; for ED50: read-out: ED50 pentetrazole cramp
Experimental: as §1, §4, §3

male mice (NMRI) [8] = test: Bicuculline cramp; assay type: in vivo; settings: po, 20 min; i.g., male mouse; bicuculline 3.0 mg/kg s.c.; observation 20 min
Experimental: as §1, §4, §3
(§5) As positive standard, there were used phenytoin, valproate, GABA and baclofen.
6. Bicuculline cramp--Cramp agent was bicuculline purum. The dosage amounted to 3.0 mg/kg s.c. The observation time amount to 20 minutes.

mice = test: Comparative investigations of the anticonvulsive action in cramp models 1-9 (overall); assay type: in vivo; settings: all cramp models, i.g., male mouse
Experimental: as §1, §4, §2, §3, §5

[9] = i.g., male DBA/2j mouse, 10.9 KHz sound of 110 dBA, 30 s, observation 1 min
[10] = po, 5 min, i.g., male mouse, 35 mA, 0.3 s, observation 5 min, read-out: ED50 electroshock
[11] = i.g., male mouse, isoniazide 250 mg/kg s.c., observation 90 min
[12] = i.g., male mouse, semicarbazide hydrochloride 1000 mg/kg s.c., observation 90 min
[13] = i.g., male mouse, 3-mercaptopropionic acid, observation 30 min
[14] = i.g., male mouse, pentetrazole 140 mg/kg s.c., observation 20 min

Question: With `Cc1cccc(C)c1NC(=O)/C=C1\SCC(=O)N1C` [2 (a), (Z)-(3-Methyl-4-oxothiazolidin-2-ylidene)-N-(2,6-dimethylphenyl)-acetamide] as the compound, how does the ED50 (DBA/2j mice; [9]) read?
Answer: 2.9 mg/kg

Question: What about the ED50 (male mice (NMRI) [1]; [10]) of the same compound?
Answer: 13.6 mg/kg

Question: And the LD50 at 168 h (in vivo)?
Answer: 1980 mg/kg

Question: And the selectivity ratio (in vivo)?
Answer: 99.8 to 739

Question: And the ED50 (male mice (NMRI) [2]; [11])?
Answer: 5.32 mg/kg

Question: What about the ED50 (male mice (NMRI) [3]) of the same compound?
Answer: 11.3 mg/kg

Question: And the ED50 (male mice (NMRI) [4]; [12])?
Answer: 14.1 mg/kg

Question: What about the ED50 (male mice (NMRI) [5]) of the same compound?
Answer: 14.9 mg/kg

Question: And the ED50 (male mice (NMRI) [6]; [13])?
Answer: 8.7 mg/kg

Question: And the ED50 (male mice (NMRI) [7]; [14])?
Answer: 19.9 mg/kg

Question: And the ED50 (male mice (NMRI) [8])?
Answer: 2.68 mg/kg

Question: For `Cc1cccc(Cl)c1NC(=O)/C=C1\SCC(=O)N1C` [2 (i), (Z)-(3-methyl-4-oxothiazolidin-2-ylidene)-N-(2-chloro-6-methylphenyl)-acetamide], which ED50 (DBA/2j mice; [9]) is on record?
Answer: 3 mg/kg

Question: And the ED50 (male mice (NMRI) [1]; [10])?
Answer: 6.47 mg/kg

Question: And the LD50 at 168 h (in vivo)?
Answer: > 1600 mg/kg

Question: What about the selectivity ratio (in vivo) of the same compound?
Answer: 243 to 1780

Question: What about the ED50 (male mice (NMRI) [2]; [11]) of the same compound?
Answer: 1.24 mg/kg

Question: What about the ED50 (male mice (NMRI) [3]) of the same compound?
Answer: 2.34 mg/kg

Question: And the ED50 (male mice (NMRI) [4]; [12])?
Answer: 1.59 mg/kg

Question: What about the ED50 (male mice (NMRI) [5]) of the same compound?
Answer: 5.09 mg/kg

Question: And the ED50 (male mice (NMRI) [6]; [13])?
Answer: 1.29 mg/kg

Question: What about the ED50 (male mice (NMRI) [7]; [14]) of the same compound?
Answer: 1.9 mg/kg

Question: What about the ED50 (male mice (NMRI) [8]) of the same compound?
Answer: 0.9 mg/kg

Question: Which results are given for `CN1C(=O)CS/C1=C\C(=O)Nc1c(Cl)cccc1Cl` [2 (j), (Z)-(3-methyl-4-oxothiazolidin-2-ylidene)-N-(2,6-dichlorophenyl)-acetamide]?
Answer: ED50 (DBA/2j mice; [9]): 2 mg/kg; ED50 (male mice (NMRI) [1]; [10]): 4.03 mg/kg; LD50 at 168 h (in vivo): 1600 mg/kg; selectivity ratio (in vivo): 282 to 2000; ED50 (male mice (NMRI) [2]; [11]): 5 mg/kg; ED50 (male mice (NMRI) [3]): 1.52 mg/kg; ED50 (male mice (NMRI) [4]; [12]): 3.41 mg/kg; ED50 (male mice (NMRI) [5]): 5.68 mg/kg; ED50 (male mice (NMRI) [6]; [13]): 1.73 mg/kg; ED50 (male mice (NMRI) [7]; [14]): 1.8 mg/kg; ED50 (male mice (NMRI) [8]): 0.8 mg/kg

Question: For `NCCCC(=O)O` [GABA], which ED50 electroshock (male mice (NMRI) [1]; i.g., male mouse, 35 mA, 0.3 s, observation 5 min) is on record?
Answer: inactive

Question: And the ED50 picrotoxin cramp (male mice (NMRI) [3])?
Answer: inactive

Question: What about the ED50 (male mice (NMRI) [4]; [12]) of the same compound?
Answer: 60 mg/kg

Question: And the ED50 strychnine cramp (male mice (NMRI) [5])?
Answer: inactive

Question: And the ED50 (male mice (NMRI) [7]; [14])?
Answer: 500 mg/kg

Question: For `NCC(CC(=O)O)c1ccc(Cl)cc1` (centres unmarked) [baclofen], which ED50 (DBA/2j mice; Mus musculus) is on record?
Answer: 5 mg/kg

Question: What about the ED50 (male mice (NMRI) [1]; Mus musculus, po, 5 min, read-out: ED50 electroshock) of the same compound?
Answer: 20 mg/kg

Question: And the LD50 at 168 h (in vivo)?
Answer: 200 mg/kg

Question: What about the selectivity ratio (in vivo) of the same compound?
Answer: 2 to 100

Question: And the Side effects (mice)?
Answer: Side effects in all models

Question: What about the ED50 (male mice (NMRI) [2]; Mus musculus) of the same compound?
Answer: 2 mg/kg

Question: And the ED50 (male mice (NMRI) [3])?
Answer: 30 mg/kg

Question: And the ED50 (male mice (NMRI) [4]; Mus musculus)?
Answer: 4 mg/kg

Question: And the ED50 (male mice (NMRI) [5])?
Answer: 8.5 mg/kg

Question: And the ED50 (male mice (NMRI) [6]; Mus musculus)?
Answer: 20 mg/kg

Question: What about the ED50 (male mice (NMRI) [7]; Mus musculus) of the same compound?
Answer: 100 mg/kg

Question: What about the ED50 (male mice (NMRI) [8]) of the same compound?
Answer: 20 mg/kg

Question: Which results are given for `O=C1NC(=O)C(c2ccccc2)(c2ccccc2)N1` [phenytoin]?
Answer: ED50 (DBA/2j mice; [9]): 2.3 mg/kg; ED50 (male mice (NMRI) [1]; Mus musculus, iv, 5 min, read-out: ED50 electroshock (i.v.)): 12.5 mg/kg; ED100 (male mice (NMRI) [1]; po, 5 min, ED 100, i.g., male mouse): 50 mg/kg; ED50 (male mice (NMRI) [2]; [11]): 38 mg/kg; ED50 (male mice (NMRI) [3]): 200 mg/kg; ED90 (male mice (NMRI) [4]; ED 90, i.g., male mouse): 50 mg/kg; ED50 strychnine cramp (male mice (NMRI) [5]): inactive; ED100 (male mice (NMRI) [7]; ED 100, i.g., male mouse): 50 mg/kg; ED50 (male mice (NMRI) [8]): 12.5 mg/kg

Question: Which ED40 (male mice (NMRI) [1]; Mus musculus, po, 5 min, read-out: ED 40 electroshock) does the source give for `CCCC(CCC)C(=O)O` [valproate] here?
Answer: 200 mg/kg

Question: What about the LD50 at 168 h (in vivo) of the same compound?
Answer: 2000 mg/kg

Question: And the selectivity ratio (in vivo)?
Answer: 8 to 14.8

Question: And the ED50 (male mice (NMRI) [2]; Mus musculus)?
Answer: 135 mg/kg

Question: And the ED50 picrotoxin cramp (male mice (NMRI) [3])?
Answer: inactive

Question: What about the ED50 (male mice (NMRI) [4]; Mus musculus) of the same compound?
Answer: 100 mg/kg

Question: What about the ED50 strychnine cramp (male mice (NMRI) [5]) of the same compound?
Answer: inactive

Question: What about the ED50 (male mice (NMRI) [6]; Mus musculus) of the same compound?
Answer: 154 mg/kg

Question: And the ED50 (male mice (NMRI) [7]; Mus musculus)?
Answer: ~250 mg/kg
